In US20120115845A1, “THERAPEUTIC AGENTS” (priority 2007, published 2012):

How the values were obtained:
human GHS receptor [1] = target: T1, human GHS receptor (Homo sapiens, UniProt Q92847); test: Ghrelin IP1 agonist assay (IP1 HTRF); assay type: cell-based; set-up: expressed in transfected cells; host or cells: HEK293s; details: for Emax: 2 h, agonist effect as % maximal effect of GHRP-6 (5 μM), read-out: h IP1 ag %; for EC50: HEK293s cells stably expressing human GHS receptor, 2 hours at 37° C., read-out: h IP1 ag EC50
T1 sequence (Q92847 whole entry): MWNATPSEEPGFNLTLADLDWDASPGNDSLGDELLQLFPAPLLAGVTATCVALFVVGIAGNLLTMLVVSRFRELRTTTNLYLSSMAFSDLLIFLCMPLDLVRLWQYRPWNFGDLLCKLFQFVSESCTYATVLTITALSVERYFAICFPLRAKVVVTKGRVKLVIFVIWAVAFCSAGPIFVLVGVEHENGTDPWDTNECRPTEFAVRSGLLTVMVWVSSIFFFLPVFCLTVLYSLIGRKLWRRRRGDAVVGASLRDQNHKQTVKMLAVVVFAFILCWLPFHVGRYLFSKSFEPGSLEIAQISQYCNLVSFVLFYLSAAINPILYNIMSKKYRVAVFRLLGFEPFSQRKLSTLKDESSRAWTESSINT
In short: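 Cells: HEK293s stably expressing human GHS receptor, in stimulation buffer containing 0.02% fatty acid free BSA.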

human GHS receptor [2] = target: T1, human GHS receptor; test: h bind IC50 (binding assay, Table 1); details: human receptor; Table 1

Structure (SMILES) | Emax (human GHS receptor [1]) | EC50 (human GHS receptor [1]) | IC50 (human GHS receptor [2])
COc1ccc(C(=O)NC(=O)Nc2nc3ccc(S(C)(=O)=O)cc3s2)c(-c2ccc(F)cc2)c1 [Example 123, 2-(4-Fluorophenyl)-4-methoxy-N-[(6-methylsulfonylbenzothiazol-2-yl)carbamoyl]benzamide] | 31.2% | 54.5 nM | 120 nM
C#Cc1ccc(Cl)c(C(=O)NC(=O)Nc2nc3ccc(S(C)(=O)=O)cc3s2)c1 [Example 61, 2-Chloro-5-ethynyl-N-(6-(methylsulfonyl)benzothiazol-2-ylcarbamoyl)benzamide] | 0.276% | > 25000 nM | 161 nM
O=C(NC(=O)c1ccccc1Cl)Nc1nc2ccc(S(=O)(=O)CCN3CCCCC3)cc2s1 [Example 33, 2-Chloro-N-[[6-[2-(1-piperidyl)ethylsulfonyl]benzothiazol-2-yl]carbamoyl]benzamide] | 41.5% | 24.9 nM | 88.5 nM
O=C(NC(=O)c1ccccc1Cl)Nc1nc2ccc(S(=O)(=O)C3CCNC3)cc2s1 (stereo not drawn) [Example 44, 2-Chloro-N-[(6-pyrrolidin-3-ylsulfonylbenzothiazol-2-yl)carbamoyl]benzamide] | 49% | 5.73 nM | 18.2 nM
O=C(NC(=O)c1cc(-n2cccc2)ccc1Cl)Nc1nc2ccc(S(=O)(=O)CCCNCC3CC3)cc2s1 [Example 72, 2-Chloro-N-[[6-[3-(cyclopropylmethylamino)propylsulfonyl]benzothiazol-2-yl]carbamoyl]-5-pyrrol-1-yl-benzamide] | 6.6% | 6070 nM | 0.3 nM
Cc1ccn(-c2ccc(Cl)c(C(=O)NC(=O)Nc3nc4ccc(S(C)(=O)=O)cc4s3)c2)n1 [Example 56, 2-Chloro-5-(3-methyl-1H-pyrazol-1-yl)-N-(6-(methylsulfonyl)benzothiazol-2-ylcarbamoyl)benzamide] | 10.8% | ≥ 25000 nM | 10.1 nM
CS(=O)(=O)c1ccc2nc(NC(=O)NC(=O)c3ccccc3I)sc2c1 [Example 118, 2-Iodo-N-[(6-methylsulfonylbenzothiazol-2-yl)carbamoyl]benzamide] | 9.59% | 114 nM | 464 nM
CS(=O)(=O)c1ccc2nc(NC(=O)NC(=O)c3ccccc3Br)sc2c1 [Example 103, 2-Bromo-N-[(6-methylsulfonylbenzothiazol-2-yl)carbamoyl]benzamide] | 20.5% | 454 nM | 239 nM
O=C(NC(=O)c1ccccc1Cl)Nc1nc2ccc(S(=O)(=O)C3CN(CC4CC4)C3)cc2s1 [Example 175, 2-Chloro-N-[[6-[1-(cyclopropylmethyl)azetidin-3-yl]sulfonylbenzothiazol-2-yl]carbamoyl]benzamide] | 30.1% | 22.4 nM | 64.1 nM
CS(=O)(=O)c1ccc2nc(NC(=O)NC(=O)c3cc(-n4cncn4)ccc3Cl)sc2c1 [Example 67, 2-Chloro-N-(6-(methylsulfonyl)benzothiazol-2-ylcarbamoyl)-5-(1H-1,2,4-triazol-1-yl)benzamide] | 0% | > 20000 nM | 536 nM
O=C(NC(=O)c1cc(-n2cccc2)ccc1Cl)Nc1nc2ccc(S(=O)(=O)CCN3CCNCC3)cc2s1 [Example 79, 2-Chloro-N-[[6-(2-piperazin-1-ylethylsulfonyl)benzothiazol-2-yl]carbamoyl]-5-pyrrol-1-yl-benzamide] | 1.95% | ≥ 25000 nM | 0.6 nM
COCCN1CCN(CCCS(=O)(=O)c2ccc3nc(NC(=O)NC(=O)c4ccccc4Cl)sc3c2)CC1 [Example 200, 2-Chloro-N-[[6-[3-[4-(2-methoxyethyl)piperazin-1-yl]propylsulfonyl]benzothiazol-2-yl]carbamoyl]benzamide] | 41.4% | 4.53 nM | 2.7 nM
CN(C)C1CCN(c2ccc(Cl)c(C(=O)NC(=O)Nc3nc4ccc(S(C)(=O)=O)cc4s3)c2)C1 (stereo not drawn) [Example 60, 2-Chloro-5-(3-(dimethylamino)pyrrolidin-1-yl)-N-(6-(methylsulfonyl)benzothiazol-2-ylcarbamoyl)benzamide] | 0.647% | > 25000 nM | 33 nM
O=C(NC(=O)c1ccccc1Cl)Nc1nc2ccc(S(=O)(=O)CCNC3CC4CCC3C4)cc2s1 (stereo not drawn) [Example 35, 2-Chloro-N-[[6-[2-(norbornan-2-ylamino)ethylsulfonyl]benzothiazol-2-yl]carbamoyl]benzamide] | 56.1% | 10.4 nM | 71.5 nM
CC(C)N1CCN(CCCS(=O)(=O)c2ccc3nc(NC(=O)NC(=O)c4ccccc4Cl)sc3c2)CC1 [Example 199, 2-Chloro-N-[[6-[3-(4-propan-2-ylpiperazin-1-yl)propylsulfonyl]benzothiazol-2-yl]carbamoyl]benzamide] | 42.2% | 1.82 nM | 2.2 nM
CN1CCC(S(=O)(=O)c2ccc3nc(NC(=O)NC(=O)c4cc(-n5cccn5)ccc4Cl)sc3c2)CC1 [Example 100, 2-Chloro-N-(6-(1-methylpiperidin-4-ylsulfonyl)benzothiazol-2-ylcarbamoyl)-5-(1H-pyrazol-1-yl)benzamide] | 0% | ≥ 20000 nM | 27.3 nM
CN1CCN(CCCS(=O)(=O)c2ccc3nc(NC(=O)NC(=O)c4cc(N5CCCC5)ccc4Cl)sc3c2)CC1 [Example 87, 2-Chloro-N-(6-(3-(4-methylpiperazin-1-yl)propylsulfonyl)benzothiazol-2-ylcarbamoyl)-5-(pyrrolidin-1-yl)benzamide] | 0.631% | 6560 nM | 0.2 nM

The next lines start with the values.

Emax (human GHS receptor [1]) | EC50 (human GHS receptor [1]) | IC50 (human GHS receptor [2]) | Structure (SMILES)
50.2% | 23 nM | 27.2 nM | CNC1CC(S(=O)(=O)c2ccc3nc(NC(=O)NC(=O)c4ccccc4Cl)sc3c2)C1 (stereo not drawn) [Example 215, 2-Chloro-N-[[6-(3-methylaminocyclobutyl)sulfonylbenzothiazol-2-yl]carbamoyl]benzamide]
6.73% | ≥ 20000 nM | 3.82 nM | CC(C)(C)OC(=O)N1CCN(c2ccc(Cl)c(C(=O)NC(=O)Nc3nc4ccc(S(C)(=O)=O)cc4s3)c2)CC1 [Example 234, tert-butyl 4-(4-chloro-3-(6-(methylsulfonyl)benzo[d]thiazol-2-ylcarbamoyl-carbamoyl)phenyl) piperazine-1-carboxylate]
51.3% | 13.4 nM | 8.7 nM | CN(C)CCCS(=O)(=O)c1ccc2nc(NC(=O)NC(=O)c3ccccc3Cl)sc2c1 [Example 202, 2-Chloro-N-[[6-(3-dimethylaminopropylsulfonyl)benzothiazol-2-yl]carbamoyl]benzamide]
2.45% | 3340 nM | 10.5 nM | CN1CCC(S(=O)(=O)c2ccc3nc(NC(=O)NC(=O)c4cc(N5CCOCC5)c(Cl)cc4Cl)sc3c2)CC1 [Example 258, 2,4-dichloro-N-(6-(1-methylpiperidin-4-ylsulfonyl)benzo[d]thiazol-2-ylcarbamoyl)-5-morpholino-benzamide]
80.9% | 28.1 nM | 8.83 nM | CN1CCN(CCCS(=O)(=O)c2ccc3nc(NC(=O)NC(=O)c4cccc(-n5cccn5)c4Cl)sc3c2)CC1 [Example 240, 2-chloro-N-(6-(3-(4-methylpiperazin-1-yl)propylsulfonyl)benzo[d]thiazol-2-ylcarbamoyl)-3-(1H-pyrazol-1-yl)benzamide]
0% | ≥ 20000 nM | 0.31 nM | CN1CCN(CCCS(=O)(=O)c2ccc3nc(NC(=O)NC(=O)c4cc(-n5cccn5)c(Cl)cc4Cl)sc3c2)CC1 [Example 241, 2,4-dichloro-N-(6-(3-(4-methylpiperazin-1-yl)propylsulfonyl)benzo[d]thiazol-2-ylcarbamoyl)-5-(1H-pyrazol-1-yl)benzamide]
12.6% | 56.1 nM | 31.4 nM | CN(C)S(=O)(=O)c1ccc2nc(NC(=O)NC(=O)c3ccccc3Cl)sc2c1 [Example 232, 2-chloro-N-[[6-(dimethylsulfamoyl)-1,3-benzothiazol-2-yl]carbamoyl] benzamide]
19.6% | ≥ 20000 nM | 22.7 nM | CN(C)[C@H]1CCN(c2ccc(Cl)c(C(=O)NC(=O)Nc3nc4ccc(S(C)(=O)=O)cc4s3)c2)C1 [Example 235, (S)-2-chloro-5-(3-(dimethylamino)pyrrolidin-1-yl)-N-(6-(methylsulfonyl)benzo[d]thiazol-2-ylcarbamoyl) benzamide]
6% | ≥ 20000 nM | 4940 nM | CN(C)Cc1ccc(Cl)c(C(=O)NC(=O)Nc2nc3ccc(S(C)(=O)=O)cc3s2)c1 [Example 266, 2-chloro-5-((dimethylamino)methyl)-N-(6-(methylsulfonyl)benzo[d]thiazol-2-ylcarbamoyl) benzamide]
27.6% | 2.03 nM | 0.5 nM | Cc1ccn(-c2ccc(C(=O)NC(=O)Nc3nc4ccc(S(=O)(=O)CCCN5CCN(C)CC5)cc4s3)c(Cl)c2)n1 [Example 212, 2-Chloro-N-[[6-[3-(4-methylpiperazin-1-yl)propylsulfonyl]benzothiazol-2-yl]carbamoyl]-4-(3-methylpyrazol-1-yl)benzamide]
51.5% | 2.26 nM | 2.2 nM | CN1CCN(CCCCS(=O)(=O)c2ccc3nc(NC(=O)NC(=O)c4ccccc4Cl)sc3c2)CC1 [Example 210, 2-Chloro-N-[[6-[4-(4-methylpiperazin-1-yl)butylsulfonyl]benzothiazol-2-yl]carbamoyl]benzamide]
0% | ≥ 20000 nM | 34.4 nM | CN(C)c1cccc(-c2ccc(Cl)c(C(=O)NC(=O)Nc3nc4ccc(S(C)(=O)=O)cc4s3)c2)n1 [Example 251, 2-chloro-5-(6-(dirnethylamino)pyridin-2-yl)-N-(6-(methylsulfonyl)benzo[d]thiazol-2-ylcarbamoyl) benzamide]
